Read-outs that look alike come from different tables or passages of the source. Marks after values point to notes of the source that are not given here.
Key:
wild-type E. coli = assay: Growth inhibition of bacterial cell cultures; type: cell-based; settings: for IC50: Escherichia coli, read-out: IC50 (inhibit the growth by half); for IC50/IC50(puro): wild-type E. coli, IC50(puro) = concentration causing 50% inhibition in peptide-bond formation at 2 mM puromycin
Experimental: (§1) S. aureus or E. coli cells (400 μl of a 0.700 OD560 preculture) containing wild-type or mutant ribosomes were added in 3.6 ml of LB (Luria Broth) medium and grown at 37°C in the presence or absence of CAM or PA–CAM conjugates until the optical density of the control culture (grown in the absence of drug) reached the value 0.700 at 560 nm. From the growth curves, the IC50 value for each strain was estimated as the concentration of the drug that is required to inhibit the growth by half.

wild-type S. aureus = assay: Growth inhibition of bacterial cell cultures; type: cell-based; settings: Staphylococcus aureus, read-out: IC50 (inhibit the growth by half)
Experimental: as §1

[1] = test system: human mesothelioma cells ZL34; assay: Cell viability by trypan blue exclusion assay; type: cell-based; settings: for IC50: Homo sapiens, ZL34 cells, read-out: IC50 (toxicity, cell viability)
Experimental: (§2) ZL34 and Met5A cells were plated in sterile 96-well microtiter plates at 5 × 10^4cells/ml and grown in Dulbecco's modified Eagle's medium (DMEM), provided by Sigma-Aldrich and supplemented with 5% fetal bovine serum. Cultures were maintained in a humidified atmosphere with 5% CO2, at 37°C. Solutions at the appropriate concentration of each compound were added, and then cells were grown for 24, 48, 72 and 96 h. After treatment, the drug was removed by washing the cells twice with phosphate buffered saline. The cells were then trypsinized (100 μl Trypsin-EDTA × 1 (Biosera) solution/well, 10 min at 37°C), mixed with 1 ml DMEM and collected by centrifugation at 3000 × g for 5 min. Cell viabilities were determined by the trypan blue exclusion assay, using a TC10 automated cell counter (BIO-RAD). Viable cells were expressed as a percentage of total cells.
(§3) Figure S5. Toxicity assays in ZL34 and Met5A cell lines. ZL34 or Met5A cells were plated in sterile 96-well microtiter plates at 5×10^4 cells/ml and grown in DMEM, supplemented with 5% fetal bovine serum. Cultures were maintained in a humidified atmosphere with 5% CO2, at 37°C. Solutions at the appropriate concentration of each compound were added, and then cells were grown for 24 h, 72 h and 96 h. After treatment, CAM or compound 4 was removed by washing the cells twice with PBS. The cells were then trypsinized, mixed with 1 ml DMEM and collected by centrifugation at 3,000×g for 5 min. Cell viabilities were determined by the trypan blue exclusion assay, using a TC10 automated cell counter (BIO-RAD). Viable cells were expressed as a percentage of total cells. SPD, spermidine.

[2] = test system: immortalized human mesothelial Met5A cells; assay: Cell viability by trypan blue exclusion assay; type: cell-based; settings: for IC50: Homo sapiens, MeT-5A, Met5A cells, read-out: IC50 (toxicity, cell viability)
Experimental: as §2, §3

[3] = test system: complex C (poly(U)-programmed ribosomes from E. coli bearing Ac[3H]Phe-tRNA at the P-site), peptidyl transferase; set-up: method as in PMID 12930958; settings: cited from earlier work
[4] = test system: central loop of Domain V of 23S rRNA, E. coli ribosomes; assay: Time-resolved footprinting of PA–CAM conjugates bound to ribosomes (DMS, kethoxal, CMCT probing, primer extension); type: binding; settings: conjugate at 50 × Ki, 25°C, ratio to control lane R
Experimental: Complexes RI and R*I were then probed at 37°C for 10 min with DMS, kethoxal or CMCT, as described previously ([30]). The modified sites in 23S rRNA were then analyzed by primer extension with reverse transcriptase, according to Moazed et al. ([30]). […] Extension products were run on 6% polyacrylamide/7M urea gels. Identification of the modified nucleotides, quantitative scanning of the gels and normalization of the band intensities were made as previously described ([4]). The values indicated in Table 2 denote the ratio between the normalized intensity of a band of interest and the normalized intensity of the corresponding band in the control lane (ribosomes non-treated with drugs).

[5] = test system: U937 (histiocytic lymphoma) cells; assay: Toxicity assay in leukemic cell line (cell counting); type: cell-based, human; settings: increasing concentrations
Experimental: Human leukemic cell lines, HS-Sultan (Burkitt's lymphoma) (European Collection of Cell Cultures, Salisbury, UK), Jurkat (T-cell acute lymphoblastic leukemia) and U937 (histiocytic lymphoma) (American Type Culture Collection, Manassas, USA), were adjusted to 1 × 10^9 cells/l in RPMI-1640 medium containing 1% Penicillin/Streptomycin and 10% fetal bovine serum and grown in triplicate in the presence or absence of CAM or PA–CAM conjugates for 4 days at 37°C, under a humidified 5% CO2 atmosphere. The medium was changed after 2 days of exposure; CAM or PA-CAM addition was repeated after medium change to keep the appropriate drug concentration. Aliquots were collected daily and counted in a CELL-DYN 3700 Hematology Analyzer. For cell necrosis and apoptosis assays, samples (10^6 cells) were collected daily and determined using the Annexin V-PE Apoptosis Detection Kit I (BD Pharmingen) for flow cytometry ([29]), as described by the manufacturer. Flow cytometry data were analyzed using the FlowJo flow cytometry analysis software. Necrotic and apoptotic cells were expressed as a percentage of total cells.
Figure S2. Toxicity assays in leukemic cell lines. […] Aliquots were collected daily and counted in a CELL-DYN 3700 Hematology Analyzer.

O=C(N[C@H](CO)[C@H](O)c1ccc([N+](=O)[O-])cc1)C(Cl)Cl [CAM, Chloramphenicol]
IC50 (wild-type E. coli; WT-E. coli, LB medium, 37°C): 6.2 ± 0.5 µM
IC50/IC50(puro) (wild-type E. coli): 1.17 ± 0.13
IC50 (wild-type S. aureus; WT-S. aureus, LB medium, 37°C): 3.1 ± 0.3 µM
IC50 [1]: > 300 µM
rescue by exogenously added spermidine ([1]; ZL34 cells treated with 300 μM compound, 3 mM spermidine): no rescue was observed
IC50 [2]: > 300 µM
koff [3]: 0.0165 ± 0.00067 s⁻¹
Ki ([3]; early phase): 3.1 ± 0.3 µM
Ki ([3]; late phase): 0.88 ± 0.07 µM

NCCCN(CCCCN(Cc1ccccc1)Cc1ccccc1)C(=O)CCC(=O)N[C@H](CO)[C@H](O)c1ccc([N+](=O)[O-])cc1 [Compound 4]
Relative reactivity of nucleoside A2058 ([4]; R*I binding state (3 min)): 1.25 ± 0.09^b,c
Relative reactivity of nucleoside A2059 ([4]; R*I binding state (3 min)): 0.60 ± 0.03^b,c
Relative reactivity of nucleoside A2062 ([4]; R*I binding state (3 min)): 0.52 ± 0.02^b,c
Relative reactivity of nucleoside A2451 ([4]; R*I binding state (3 min)): 0.53 ± 0.05^b
Relative reactivity of nucleoside A2602 ([4]; R*I binding state (3 min)): 0.88 ± 0.08
Relative reactivity of nucleoside G2505 ([4]; R*I binding state (3 min)): 0.35 ± 0.02^b,c
Relative reactivity of nucleoside U2506 ([4]; R*I binding state (3 min)): 0.65 ± 0.04^b
Relative reactivity of nucleoside U2585 ([4]; R*I binding state (3 min)): 0.45 ± 0.02^b,c
Relative reactivity of nucleoside U2609 ([4]; R*I binding state (3 min)): 1.00 ± 0.07
Relative reactivity of nucleoside A2058 ([4]; RI binding state (2 s)): 1.00 ± 0.05
Relative reactivity of nucleoside A2059 ([4]; RI binding state (2 s)): 1.00 ± 0.06
Relative reactivity of nucleoside A2062 ([4]; RI binding state (2 s)): 1.00 ± 0.05
Relative reactivity of nucleoside A2451 ([4]; RI binding state (2 s)): 0.48 ± 0.02^b
Relative reactivity of nucleoside A2602 ([4]; RI binding state (2 s)): 1.00 ± 0.10
Relative reactivity of nucleoside G2505 ([4]; RI binding state (2 s)): 0.65 ± 0.05^b
Relative reactivity of nucleoside U2506 ([4]; RI binding state (2 s)): 0.70 ± 0.05^b
Relative reactivity of nucleoside U2609 ([4]; RI binding state (2 s)): 1.00 ± 0.09
IC50 (wild-type E. coli): 9.4 ± 0.8 µM
IC50/IC50(puro) (wild-type E. coli): 5.60 ± 0.76
IC50 (wild-type S. aureus): 4.7 ± 0.5 µM
sensitivity of cells (cell counting) [5]: insensitive
IC50 [1]: 25 ± 3 µM
viability after rescue by exogenously added spermidine ([1]; ZL34 cells exposed to an IC50 dose of the compound, spermidine at 10 × IC50): ~95%
IC50 [2]: 60 ± 5 µM
rescue by exogenously added spermidine ([2]; Met5A cells exposed to an IC50 dose of the compound, spermidine at 10 × IC50): recover little of the lost viability
